The text below walks through data of PubChem BioAssay (NCI).

Among the test systems are UACC-257 melanoma; NCI-H226 lung; HOP-92 NSCLC; SK-OV-3 ovarian; RXF 393 renal; SN12C renal; A549 NSCLC; SR leukemia; SNB-19 CNS; T-47D breast.
Common to all, as to assay: NCI tumour cell line growth inhibition, 48 h

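Cells were grown in 96-well plates and exposed to each compound for 48 hours at five concentrations; endpoints were interpolated linearly between bracketing concentrations, or set to the highest concentration if not reached. Here, GI50 denotes the concentration required for 50% inhibition of growth. TGI: concentration producing complete growth inhibition.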

In the case of `C1=CC2SSSC2C1` (stereo not given), the TGI with UACC-257 melanoma, in the experiment on NCI-H226 lung, in the experiment on HOP-92 NSCLC, with SK-OV-3 ovarian, with RXF 393 renal and with SN12C renal was above 100 µM each time. The TGI in the experiment with A549 NSCLC, in the experiment with SR leukemia and with SNB-19 CNS was above 100 µM throughout.

Turning to `Cc1cc(C(=O)Nc2ncc(Cc3cccc(C(F)(F)F)c3)s2)c2ccccc2n1`, the GI50 in the experiment with UACC-257 melanoma is 1750 nM; with HOP-92 NSCLC, 2560 nM; in the experiment with SK-OV-3 ovarian, 4240 nM; in the experiment with SN12C renal it was 3.62 µM; in the experiment with T-47D breast, 0.181 µM; in the experiment with A549 NSCLC it was 3.19 µM. The GI50 was 2020 nM with SR leukemia and 3.02 µM in the experiment with SNB-19 CNS. For the same compound, the TGI with UACC-257 melanoma, with HOP-92 NSCLC, with SK-OV-3 ovarian, in the experiment on SN12C renal, with T-47D breast and with A549 NSCLC was above 100 µM in each case. Besides, the TGI in the experiment on SR leukemia and with SNB-19 CNS was above 100 µM throughout.

For `NC(N)=N/N=C(\c1nc2ccc([N+](=O)[O-])cc2[nH]c1=O)C(O)c1ccc([N+](=O)[O-])cc1` (stereo not given), the TGI in the experiment with UACC-257 melanoma, in the experiment with NCI-H226 lung, with HOP-92 NSCLC, in the experiment with SK-OV-3 ovarian, in the experiment on RXF 393 renal and with SN12C renal was above 100 µM in each case. In addition, the TGI with A549 NSCLC, in the experiment with SR leukemia and with SNB-19 CNS was above 100 µM throughout.

On to `NCCCCN(CCCN)/[N+]([O-])=N\O`, for which the TGI with UACC-257 melanoma, in the experiment with NCI-H226 lung, in the experiment with HOP-92 NSCLC, with SK-OV-3 ovarian, in the experiment with RXF 393 renal and with SN12C renal was above 100 µM in each case. The TGI in the experiment on A549 NSCLC, with SR leukemia and in the experiment with SNB-19 CNS was above 100 µM throughout.

On to `O=C1OC(c2ccccc2)=N/C1=C\c1cccc2ccccc12`, for which the TGI in the experiment on UACC-257 melanoma, in the experiment on NCI-H226 lung, in the experiment with HOP-92 NSCLC, with SK-OV-3 ovarian, with RXF 393 renal and in the experiment on SN12C renal was above 100 µM throughout. Besides, the TGI in the experiment on A549 NSCLC, in the experiment on SR leukemia and in the experiment with SNB-19 CNS was above 100 µM throughout.

In the case of `O=C(Cc1ccccc1)NN1C(=O)C(Cl)C1c1cc(Br)ccc1O` (stereo not given), the TGI with UACC-257 melanoma is above 100 µM; with NCI-H226 lung, 69.7 µM; in the experiment with SK-OV-3 ovarian it was 39 µM; in the experiment with RXF 393 renal, above 100 µM; with SN12C renal, above 100 µM; in the experiment with A549 NSCLC, above 100 µM. The TGI in the experiment with SR leukemia was above 100 µM; with SNB-19 CNS, 47.9 µM.

For `Nn1c(=O)n(Cc2ccccc2)n(-c2ccccc2)c1=O`, the TGI with UACC-257 melanoma, with NCI-H226 lung, with HOP-92 NSCLC, with SK-OV-3 ovarian, with RXF 393 renal and with SN12C renal was above 100 µM in each case. Also, the TGI in the experiment with A549 NSCLC, in the experiment on SR leukemia and in the experiment with SNB-19 CNS was above 100 µM throughout.

Turning to `C[C@@H]1CC(=O)C2CCCC1C2=O` (stereo not given in full), the TGI in the experiment with UACC-257 melanoma, in the experiment on NCI-H226 lung, with HOP-92 NSCLC, in the experiment on SK-OV-3 ovarian, in the experiment with RXF 393 renal and with SN12C renal was above 100 µM in each case. Besides, the TGI in the experiment with A549 NSCLC, in the experiment with SR leukemia and with SNB-19 CNS was above 100 µM throughout.

For the compound `CCOc1ccccc1NC(=O)CC(C(=O)OC)C(=O)C(=O)OC` (stereo not given), the TGI with UACC-257 melanoma, with NCI-H226 lung, with HOP-92 NSCLC, in the experiment on SK-OV-3 ovarian, with RXF 393 renal and with SN12C renal was above 100 µM each time. Further, the TGI in the experiment with A549 NSCLC, in the experiment with SR leukemia and with SNB-19 CNS was above 100 µM each time.

Take `COC(=O)C1=C(C)N(NC(=O)OC(C)(C)C)C(=O)C1=P(c1ccccc1)(c1ccccc1)c1ccccc1`: the TGI in the experiment with UACC-257 melanoma, in the experiment on NCI-H226 lung, in the experiment with HOP-92 NSCLC, in the experiment on SK-OV-3 ovarian, in the experiment on RXF 393 renal and with SN12C renal was above 100 µM each time. Also, the TGI in the experiment on A549 NSCLC, with SR leukemia and in the experiment with SNB-19 CNS was above 100 µM in each case.

Take `COc1cc2ncnc(Nc3ccc(C)c(O)c3)c2cc1OC`: the GI50 with UACC-257 melanoma was above 25000 nM; in the experiment with NCI-H226 lung, 20.5 µM; with SK-OV-3 ovarian, 1320 nM; with RXF 393 renal, 5.48 µM; in the experiment on SN12C renal it was 6.46 µM; in the experiment on T-47D breast, 7.79 µM. Further, the values for the GI50 with A549 NSCLC, in the experiment with SR leukemia and in the experiment with SNB-19 CNS were 18.1 µM, above 25000 nM and above 25 µM, respectively. The TGI with UACC-257 melanoma is above 25 µM; in the experiment on NCI-H226 lung, above 25 µM; in the experiment on SK-OV-3 ovarian, above 19.9 µM; with RXF 393 renal it was 19.2 µM; in the experiment on SN12C renal it was above 25 µM; in the experiment with T-47D breast, above 25 µM. Moreover, the TGI in the experiment with A549 NSCLC, in the experiment with SR leukemia and in the experiment on SNB-19 CNS was above 25 µM throughout.

Turning to `COc1ccc(C(=O)C(C(=O)CCC(=O)Nc2cccc(Cl)c2)c2ccc(OC)cc2)cc1` (stereo not given), the TGI in the experiment with UACC-257 melanoma, in the experiment with NCI-H226 lung, with HOP-92 NSCLC, in the experiment on SK-OV-3 ovarian, with SN12C renal and in the experiment on A549 NSCLC was above 100 µM in each case. In addition, the TGI with SR leukemia and in the experiment with SNB-19 CNS was above 100 µM throughout.

For the compound `CC(C)C(Nc1c2ccccc2nc2ccccc12)C(=O)O` (stereo not given), the TGI in the experiment on UACC-257 melanoma, in the experiment with NCI-H226 lung, in the experiment on HOP-92 NSCLC, with SK-OV-3 ovarian, in the experiment with RXF 393 renal and in the experiment with SN12C renal was above 100 µM each time. Moreover, the TGI in the experiment with A549 NSCLC, in the experiment with SR leukemia and with SNB-19 CNS was above 100 µM in each case.

On to `Cc1nc(N)sc1C(=O)/C=C\c1ccc2c(c1)OCO2`, for which the TGI with UACC-257 melanoma, in the experiment with NCI-H226 lung, with HOP-92 NSCLC, in the experiment on SK-OV-3 ovarian, in the experiment with RXF 393 renal and with SN12C renal was above 100 µM each time. In addition, the TGI in the experiment with A549 NSCLC, with SR leukemia and in the experiment on SNB-19 CNS was above 100 µM each time.
